Legend:
[1] = test system: patients with T2D and documented moderate renal insufficiency (CKD 3A, 3B); assay: Multicentre, double-blind, placebo-controlled clinical study of sotagliflozin 200 mg and 400 mg once daily; HbA1c change at Week 26; format: in vivo; conditions: for HbA1c (%) Change from baseline to Week 26 LS Mean difference (SE) vs. placebo / HbA1c (%) Change from baseline to Week 26 LS Mean (SE) / HbA1c (%) Week 26 Mean (SD) / HbA1c (%) Week 26 Median: overall ITT population; for HbA1c (%) Change from baseline to Week 26 LS Mean (SE): ANCOVA, multiple imputation; for LS mean change in HbA1c from baseline to W26 / mean HbA1c level reached at W26: sotagliflozin 400 mg
Description: The efficacy, relative to a placebo, […], was evaluated in multicentre, double-blind clinical with random distribution in three groups of treatment (group treated with sotagliflozin 200 mg daily dose, group treated with sotagliflozin 400 mg daily dose, and group treated with a placebo) of patients. The selected patients were adult patients with T2D (drug-naïve or on antidiabetic therapy) and documented moderate renal insufficiency defined by an eGFR (based on the 4 variable Modification of Diet in Renal Disease [MDRD] equation) of ≥30 and <60 mL/min/1.73 m^2 (CKD 3A, 3B). The study was conducted as follows: • Screening Phase—Visit 1 (up to 2 weeks) • Run-in phase (Visit 2), lasted 2 weeks. Patients were treated in a single-blind manner with two placebo tablets (identical to sotagliflozin 200 mg in appearance) administered once daily during the Run-in phase, starting from Visit 2 • Double-blind Treatment Period (Day 1 to Week 26): Eligible patients will be randomized on Day 1 (Visit 3). Following randomization, patients will be treated in a double-blind manner for 52 weeks. A total of 787 patients ≥18 years of age (or ≥legal age of the majority, whichever is greater) were randomly assigned 1:1:1 to the following 3 treatment groups: • Placebo, given as two (2) placebo tablets (identical to sotagliflozin 200 mg in appearance), once daily, before the first meal of the day • Sotagliflozin 200 mg, given as 2 tablets: 1 sotagliflozin 200 mg tablet and 1 placebo tablet (identical to sotagliflozin 200 mg in appearance), once daily • Sotagliflozin 400 mg, given as two (2) 200 mg tablets, once daily, before the first meal of the day. • Double-blind Extension Period (Week 27 to Week 52): • Follow-up Period Following the last dose of the IMP: a 4 week post-treatment visit to collect safety and some efficacy information. […] Efficacy analysis was based on the intent-to-treat (ITT) population using efficacy assessments obtained during the study, including those obtained after investigational medicinal product (IMP) discontinuation or introduction of rescue therapy. The ITT population consisted of all randomized patients. The primary efficacy endpoint was analyzed using an analysis of covariance (ANCOVA) model. The ANCOVA model included treatment groups (sotagliflozin 200 mg, sotagliflozin 400 mg, placebo), randomization stratum of HbA1c (≤8.5%, >8.5%), randomization stratum of SBP (<130, ≥130 mmHg), randomization stratum of CKD stage (3A, 3B), and country as fixed effects, and baseline HbA1c value as a covariate.

[2] = test system: patients with type 2 diabetes; conditions: phase II trials; cited from earlier work
[3] = sotagliflozin 200 mg once daily
[4] = sotagliflozin 400 mg once daily
[5] = sotagliflozin 400 mg once daily, listed as sotagliflozin

CCOc1ccc(Cc2cc([C@@H]3O[C@H](SC)[C@@H](O)[C@H](O)[C@H]3O)ccc2Cl)cc1 [Sotagliflozin, sotagliflozin]
HbA1c (%) Change from baseline to Week 26 LS Mean difference (SE) vs. placebo ([1]; sotagliflozin 200 mg once daily, 95% CI (−0.244, 0.054), p-value 0.2129): −0.09 (0.076) % | HbA1c (%) Change from baseline to Week 26 LS Mean (SE) [1, 3]: −0.32 (0.060) % | HbA1c (%) Week 26 Mean (SD) [1, 3]: 7.82 (0.99) % | HbA1c (%) Week 26 Median [1, 3]: 7.70% | HbA1c (%) Change from baseline to Week 26 LS Mean difference (SE) vs. placebo ([1]; sotagliflozin 400 mg once daily, 95% CI (−0.382, −0.082), p-value 0.0024): −0.23 (0.076) % | HbA1c (%) Change from baseline to Week 26 LS Mean (SE) [1, 4]: −0.46 (0.060) % | HbA1c (%) Change from baseline to Week 26 LS Mean (SE) [1, 5]: −0.46% | HbA1c (%) Week 26 Mean (SD) [1, 4]: 7.72 (1.00) % | HbA1c (%) Week 26 Median [1, 4]: 7.60% | HbA1c (%) Week 26 Mean (SD) [1, 5]: 7.72% | LS mean change in HbA1c from baseline to W26 ([1]; CKD3A population): −0.54% | mean HbA1c level reached at W26 ([1]; CKD3A population): 7.62% | LS mean change in HbA1c from baseline to W26 ([1]; CKD3B population): −0.37% | mean HbA1c level reached at W26 ([1]; CKD3B population): 7.82% | glycemic control (reduction in A1C) [2]: significantly improve glycemic control

Source: patent US20220265690A1, “USE OF SOTAGLIFLOZIN FOR THE TREATMENT OF PATIENTS WITH TYPE 2 DIABETES MELLITUS AND MODERATE RENAL IMPAIRMENT” (Lexicon Pharmaceuticals, Inc., priority 2019, published 2022)
